Columns and labels:
[1] = Oil-water partition coefficient (n-octanol / pH 7.4 phosphate buffer); format: physicochemical; details: n-octanol / pH 7.4 phosphate buffer, pH 7.4; read-out: Log D (pH 7.4)
Procedure: • a) To a 5 mL glass bottle was added 1 mL n-octanol and 1 mL pH 7.4 phosphate buffer, respectively. • b) The compound was added to a DMSO solution to prepare a compound stock solution with a concentration of 10 mM, and then 20 μL compound stock solution was added to the mixture solution of n-octanol and phosphate buffer. • c) Shaken at room temperature for 1 hour at a rate of 300/minute. • d) Kept for 30 minutes, and after the solution was completely layered, the upper and lower layers of the solution were taken separately to a 96 well deep well plate, and LC-MS/MS was used for detection via injection. • e) The aliquots of 1-octanol and aqueous solution were diluted consecutively with DMSO to obtain the final sample for LC-MS/MS analysis. Three consecutive dilutions were carried on every 1-octanol phase with covering a concentration range of 2500 fold. Every final aqueous phase was diluted consecutively twice with covering a concentration range of 100 fold. The MS peak areas of these solutions were used to generate log (peak area) based on the log (relative concentration) calibration line.
[formula] • Coct=sample concentration in n-octanol • Caq=sample concentration in pH 7.4 phosphate buffer

in vivo = experiment: in vivo; parameters: species or system Crab-eating macaques (Macaca fascicularis); details: male, cynomolgus monkey, po
Procedure: Crab-eating macaques were used as test animal, the LC-MS/MS was used to determinate the drug concentration at different times in the plasma of crab-eating macaques, who had been administered with compound 1 via gavage (PO). The pharmacokinetic behaviors of compounds of present disclosure in crab-eating macaques were studied and their pharmacokinetic characteristics were evaluated.
Crab-eating macaques (Macaca fascicularis), common grade, male, approximately 2.5-4 years old, 2-5 kg weight, 3 in each group.
Compound 1 and a solid substrate (hydroxypropyl methylcellulose acetate succinate) are dissolved in an organic solvent, and the solvent was removed by heating evaporation, or removed by a spray dryer to obtain compound 1 loaded on the solid substrate.
Compound 1 loaded on the solid substrate, which was obtained according to the above steps, was slowly added to a suitable container with approximately 80% final volume of vehicle while stirring. Stirred until it is visually uniform, and if necessary, the formulation shall be subjected to ultrasonic treatment. Vehicle was added to give the desired concentration. The obtained formulation shall be consecutively stirred until a visually uniform formulation was obtained, and if necessary, the formulation shall be subjected to ultrasonic treatment. The administration concentration with 20 mg/mL API concentration was prepared, and the preparation method for above vehicle was: approximately 30% total volume of purified water was added to an suitable container, and heated up to approximately 80° C.-90° C., the required volume of Tween 80 was added slowly to the container, while stirred until visually uniform. Purified water was added to the final volume. Stirred until a visually uniform solution was obtained.
Crab-eating macaques were fast overnight and given free access to water. […] Feeding was resumed 2 hours after administration.
For crab-eating macaques administered by gavage, 20 μL blood were collected from the veins in hind limb before administration and 0.25, 0.5, 1, 2, 4, 8, 24, 48, 72 and 96 hours after administration, respectively, and placed in EDTA-K2 anticoagulant blood collection tubes, and then the blood would be placed on ice until centrifuged to obtain plasma samples. The plasma samples were centrifuged at 4° C. (3500 rpm, 10 min), and after separation, the plasma samples were transferred to EP tubes and stored at −80° C. for detection.
The level of tested compounds in the plasma of crab eating macaques, who had been orally administrated with different concentrations of drug were determinated: 10 μL macaque blood at each time point after administration was taken, 100 μL methanol containing an internal standard (100 ng/mL) was added, vortex mixed for 1 minute, centrifuged at 4° C. (12000 rmp, 5 minutes), and 1 μL supernatant was taken from the plasma samples for LC-MS/MS analysis.

[2] = Cytotoxicity test (cell viability, CellTier Glo); format: cell-based; details: human
Procedure: • Virus: The HIV-1 pseudovirus used in this experiment was a replication deficient virus, which is constructed by WuXi AppTec. • HEK 293T cell line was purchased from ATCC, and Item No. is CRL-11268. Cells were cultured in DMEM medium with 10% fetal bovine serum and 1% double antibody. • Reagents
On the first day, HEK 293T cells were inoculated into a 96 well test plate at the density of 55000 cells per well and […] per well, and incubated overnight in a 5% CO2 and 37° C. incubator.
On the second day, the tested compounds (compounds provided in the example of the present invention) and the control compounds were diluted 4-fold with cell culture medium for a total of 8 concentration points, and 50 μL diluted compounds were added to each well, and each well was performed duplicate.
Cell Control (cells, no compound treatment or virus infection) and virus control (cells infected with virus, no compound treatment) were set up. The final initial test concentration of the tested compounds and control compounds was 1000 nM (Table 1), and the amount of virus infection was 100 TCID50 per well. The total volume of cell culture medium was 200 μL per well, and the final concentration of DMSO in the culture medium was 0.5%.
The cells were cultured in a 5% CO2 and 37° C. incubator for additional 3 days.
On the fifth day, in the cytotoxicity test plates, 100 μL cell supernatant were sucked from each well, 100 μL cell viability assay reagent CellTier Gloin was added in dark. Cell viability in each well was detected by BioTek enzyme-linked immunosorbent assay reader, and the data was used for sample cytotoxicity analysis.
Dose-response curve was drawn through GraphPad Prism software. The calculation equations for antiviral activity (% Inhibition) and cell viability (% cell viability) were as follow:
The values of EC50 and CC50 were analyzed by GraphPad Prism (version 5) software, and nonlinear fitting analysis was used for inhibitory activity and cell viability of the compounds, and the fitting method was “log (inhibitor) vs. response—Variable slope”.
3. The HIV-1 pseudovirus experiment was applied to determinate the in vitro antiviral activity and cytotoxicity of the tested compound on HEK 293T cells, and the experimental results were shown in the table below.

C[C@H]1N2C(=O)c3c(O)c(=O)c(C(=O)NCc4ccc(F)cc4F)cn3C[C@@H]2OCC12CC2 [Compound 1]
logD [1]: 2.2
AUC(0-inf) (in vivo; 30 mg/kg): 23100 ± 3840 ng·h/mL
AUC(0-t) (in vivo; 30 mg/kg): 22900 ± 3810 ng·h/mL
Cmax (in vivo; 30 mg/kg): 1800 ± 534 ng/mL
MRT (in vivo; 30 mg/kg): 14.1 ± 2.68 h
Tmax (in vivo; 30 mg/kg): 4 h
half-life (in vivo; 30 mg/kg): 15.7 ± 5.49 h
AUC(0-inf) (in vivo; 100 mg/kg): 164000 ng·h/mL
AUC(0-t) (in vivo; 100 mg/kg): 140000 ± 44200 ng·h/mL
Cmax (in vivo; 100 mg/kg): 4040 ± 871 ng/mL
MRT (in vivo; 100 mg/kg): 26.9 h
Tmax (in vivo; 100 mg/kg): 18.7 ± 25.4 h
half-life (in vivo; 100 mg/kg): 19.8 ± 4.78 h
CC50 at 3 days [2]: > 1 µM

Source: patent publication US20250376481A1, “POLYCYCLIC CARBAMOYL PYRIDONE DERIVATIVE, PREPARATION METHOD THEREFOR AND PHARMACEUTICAL COMPOSITION THEREOF” (NANJING AIDEA PHARMACEUTICAL TECHNOLOGY CO., LTD., priority 2021, published 2025)
